The term inhibition denotes the share of the control response that was lost under treatment. Read a low inhibition as a weak effect. The IC50 is the concentration that gives 50% inhibition. Read a high IC50 as weaker potency in that assay.

Several values for one entry are separate records, joined by “and”; a condition that tells them apart may be missing. Equal entries are not always repeated.

The target of one data set is MTH1 (Homo sapiens, UniProt P36639). Kind of data set: phosphohydrolase selectivity, malachite green assay. Type of data set: biochemical. The arrangement: His-tag (N); made in house; host or cells: E. coli BL21 (DE3) R3 pRARE2. The protocol:
The selectivity assay for TH5427 against similar pyrophosphohydrolases was performed with MTH1, NUDT9, NUDT2, NUDT12, NUDT14, NUDT15, NUDT18, ITPase, dCTPase and dUTPase[9]. All analyses were performed by malachite green assay following 30 min incubation at room temperature in reaction buffer (100 mM Tris Acetate, pH 7.5, 40 mM NaCl, 10 mM MgAc, 1 mM DTT) with 100 µM TH5427 and preferred substrates for each enzyme (4.75 nM MTH1 with 100 µM dGTP, 8 nM NUDT15 with 100 µM dGTP, 8 nM NUDT2 with 16 µM AP4A, 2 nM NUDT5 with 50 µM ADPR, 20 nM NUDT9 with 50 µM ADPR, 20 nM NUDT12 with 50 µM NADH, 2 nM NUDT14 with 50 µM ADPR, 200 nM NUDT18 with 50 µM 8-oxo-dGTP, 0.2 nM ITPase with […], 35 nM dCTPase with 35 µM dCTP, and 1 nM dUTPase with 12.5 µM dUTP). MTH1, NUDT15, NUDT18, ITPase, dCTPase and dUTPase reactions were coupled with 0.2 U/mL pyrophosphatase, while NUDT2, NUDT5, NUDT9, NUDT12, and NUDT14 reactions were coupled by bovine intestinal phosphatase (10 U/mL).

Data set [1] is described as follows: SafetyScreen 44 and ExpresSDiversity kinase panels (Eurofins Cerep Panlabs). The arrangement: species or system human. Particulars: 10 µM. Here is the method:
TH5427 selectivity was also studied with the SafetyScreen44™ Panel and ExpresSDiversity Kinase Panel from Eurofins Cerep Panlabs at 10 µM, according to the company’s procedures.

`Cn1c(=O)c2c(nc(N3CCNCC3)n2Cc2nnc(-c3ccc(Cl)c(Cl)c3)o2)n(C)c1=O` [TH5427] gave an inhibition at 100 µM on MTH1 (100 µM) of 82%. In addition, the half-maximal inhibitory concentration (IC50) on MTH1 (dose-response, malachite green assay) is 20.3 µM and 20 µM. In addition, the “selectivity for NUDT5 over MTH1” value at MTH1 (in vitro, ratio of IC50 values) worked out at 690 fold. Further, in data set [1], the “off-target interactions in panels” value is reported as “only displayed a few significant interactions”.

The values above are taken from publication PMC5772648, “Targeted NUDT5 inhibitors block hormone signaling in breast cancer cells” (Nature Communications, 2018).
